According to patent US5917057A, “N-hydroxy-dibenz[b,e]oxepinalkylamines, n-hydroxy-dibenz[b,e]oxepinalkanoic acid amides and related heterocyclic analogues” (Hoechst Marion Roussel, Inc., priority 1998, dated 1999):

Assays:
[1] = test system: ear edema induced by topical application of TPA (phorbol 12-myristate acetate); assay: TPA-Induced Ear Edema (TPAEE); format: in vivo, Female Swiss Webster mice; conditions: 10 μg/ear topical; TPA 10 μg/ear; about 5 hours; relative to control
Protocol: TPA-Induced Ear Edema (TPAEE)
The purpose of this assay was to determine the ability of a topically applied compound to prevent ear edema induced by topical application of TPA (phorbol 12-myristate acetate). Female Swiss Webster mice topically received TPA (10 μg/ear) on the right ear and vehicle on the left ear. The test compound (10 μg/ear) was applied to both ears. After about 5 hours, the animals are sacrificed and a 4 mm diameter plug is taken from each ear and weighed. The difference between the right and left ear plug weights for each animal was determined. The antiinflammatory activity of the test compound is expressed as the mean percent change in ear plug weight of the treated animals compared to the mean percent change in the plug weight of the control animals. (Standard: Indomethacin:--86% at 1 mg/ear). Young, J. M. et al., J. Invest. Dermatol., 80 (1983), pp. 48-52.

[2] = molecular target: T1, 5-lipoxygenase (Rattus norvegicus, UniProt P12527); assay: In Vitro 5-Lipoxygenase Assay (5-HETE); format: biochemical; conditions: RBL-1 cell-free supernatant, 10 μM arachidonic acid, 37° C.
T1 construct: cell-free 5-lipoxygenase enzyme obtained from rat basophilic leukemia (RBL-1) cells; endogenous in cells; host or cells: RBL-1 rat basophilic leukemia cells, cell-free supernatant of sonicated cells
T1 sequence (P12527 1-673): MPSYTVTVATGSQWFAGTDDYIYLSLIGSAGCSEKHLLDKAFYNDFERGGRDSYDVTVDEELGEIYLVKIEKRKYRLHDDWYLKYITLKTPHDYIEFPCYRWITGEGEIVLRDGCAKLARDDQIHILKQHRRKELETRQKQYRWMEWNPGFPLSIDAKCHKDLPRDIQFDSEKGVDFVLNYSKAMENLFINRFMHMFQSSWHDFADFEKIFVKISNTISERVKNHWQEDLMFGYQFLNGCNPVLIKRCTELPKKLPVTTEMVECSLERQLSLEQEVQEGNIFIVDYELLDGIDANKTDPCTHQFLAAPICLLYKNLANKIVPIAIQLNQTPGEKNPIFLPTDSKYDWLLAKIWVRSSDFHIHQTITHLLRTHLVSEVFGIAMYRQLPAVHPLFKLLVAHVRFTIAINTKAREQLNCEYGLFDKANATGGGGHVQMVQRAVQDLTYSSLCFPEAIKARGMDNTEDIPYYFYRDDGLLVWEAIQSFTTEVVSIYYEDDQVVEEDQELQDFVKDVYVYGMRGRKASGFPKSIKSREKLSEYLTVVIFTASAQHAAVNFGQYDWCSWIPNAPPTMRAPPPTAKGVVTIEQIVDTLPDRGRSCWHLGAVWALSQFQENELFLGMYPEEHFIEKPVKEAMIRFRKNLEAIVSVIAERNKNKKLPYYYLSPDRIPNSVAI
Protocol: The ability of a compound to reduce 5-HETE production by cell-free 5-lipoxygenase enzyme obtained from rat basophilic leukemia (RBL-1) cells was measured by a modified procedure of Cochran et al. [Biochem. Biophys. Res. Commun., 161, 1327 (1989)]. RBL-1 cell-free supernatants were prepared by a modification of the method of Jakschik et al., [Prostaglandins, 25, 767 (1983)]. Cells (1×10^9) were collected by centrifugation (22°) and washed at […] with 50 mM phosphate buffer at 5×10^7 cells/ml. Cells were lysed on ice for 45 seconds with a Teckmar sonic disrupter. The homogenate was centrifuged (4° C) for 25 minutes and the supernatant (5 μg protein/μl) was decanted and stored at -80° C. A 1% dimethylsulfoxide (DMSO) vehicle (DMSO in deionized water) was utilized at various concentrations of the test compound. Duplicate reactions were run in 35mM buffer in the presence of 5 μM ATP, 50 μM CaCl2 and 10 μM arachidonic acid at 37° C. The reaction was terminated with 10 μl 0.3 citrate buffer and diluted with BGGE buffer (0.01M phosphate, 0.1% bovine gamma globulin, pH 8.5) containing 114 μM BHT with ice bath cooling. 5-Hydroxyeicosatetraenoic acid (5-HETE) levels were quantitated by radioimmunoassay according to standard procedures.

[3] = test system: naja naja (snake venom) phospholipase A2 (PLA2)-induced paw edema; assay: Phospholipase A2-Induced Paw Edema (PIPE); format: in vivo, male Wistar rats; conditions: subplantar; for PIPE 0.1M: 0.1 M test compound injected with PLA2 (3 units/100 μl/paw), rat left hindpaw, two hours; for PIPE ED50: standards, rat hindpaw
Protocol: Phospholipase A2 -Induced Paw Edema (PIPE)
The ability of compounds to reverse naja naja (snake venom) phospholipase A2 (PLA2)-induced paw edema in male Wistar rats (100-125 gm) was measured. PLA2 (3 units/100 μl dH2 O/paw) alone or with 0.1 M of the test compound was injected in the subplantar region of the rat left hindpaw. Immediately following injection and at two hours post administration, the paw was immersed in a mercury bath, and paw displacement was measured on a recorder via a transducer. The value was then converted to mm Hg. […] Giessler, A. J. et al., "Agents and Actions", Vol. 10, "Trends in Inflammation Research" (1981), p. 195.

[4] = test system: mouse ear edema induced by topical application of arachidonic acid; assay: Arachidonic Acid-Induced Mouse Ear Edema (AAEE); format: in vivo, Female Swiss Webster mice; conditions: 1 mg/ear topical, 30 min before arachidonic acid 4 mg/ear; relative to control
Protocol: Arachidonic Acid-Induced Mouse Ear Edema (AAEE)
The purpose of this assay was to determine the ability of a topically applied compound to prevent mouse ear edema induced by topical application of arachidonic acid. Female Swiss Webster mice topically received vehicle or test compound (1.0 mg/ear) on both ears (10 μl on outer and inner ears). After 30 minutes, arachidonic acid is applied to the right ear of each mouse of each group in the amount of 4 mg/ear. Vehicle is applied to the left ear of each mouse of each group at a volume of 20 μl/ear. After an additional hour, the mice are sacrificed and a 4 mm plug is taken from each ear and weighed. The difference between the right and left ear plugs was determined for each animal. The antiinflammatory activity of the test compound is expressed as the mean percent change in the ear plug weight of the treated animals relative to the mean percent change in weights of control animals' ear. (Standard: Indomethacin--90% at 1 mg/ear). Young, J. M. et al., Invest. Dermatol., 80, (1983), pp. 48-52.

[5] = test system: cyclooxygenase metabolite (PGE2) formation in cultured 3T3 mouse fibroblasts (CCL92-3T3); assay: In Vitro Cyclooxygenase Assay (PGE2); format: cell-based; conditions: Fibroblast, 24 hours; for IC50: radioimmunoassay
Protocol: The ability of a compound to reduce cyclooxygenase metabolite formation in cultured 3T3 mouse fibroblasts (CCL92-3T3) was measured by radioimmunoassay of prostaglandin E2 (PGE2) levels in the culture media. The 3T3 cells were maintained in complete Dulbecco's Modified Eagles Medium (DMEM) containing 10% calf serum, 2 mM L-glutamine and 5000 units/ml of penicillin/streptomycin. After seeding in 24 mm tissue culture dishes at […], the cells were cultured for 24 hours. Media was removed by aspiration and replaced with DMEM (1 ml/well, 4 wells/treatment) containing test compound, which was previously dissolved in ethanol, or vehicle at various concentrations. The cells were then incubated for 24 hours and PGE2 levels in the media were quantitated by radioimmunoassay according to established procedure (Lingren et al., FEBS Lett., 48, 22). The mean value from duplicate determinations was utilized to assess the % change from control values for each treatment group.

[6] = test system: phenyl-para-quinone induced writhing; assay: phenyl-para-benzoquinone writhing assay in mice (analgesia); format: in vivo; conditions: at 20 mg/kg
Excerpt: The compounds of the present invention are also useful as analgesic agents due to their ability to alleviate pain in mammals. […] Exptl. Biol. Med., 95, 729 (1957)].

Structure (SMILES)	TPAEE percent change [1]	IC50 [2]	PIPE 0.1M [3]	AAEE % Change [4]	IC50 [5]	% Inhibition of Writhing [6]	PIPE ED50 [3]	inhibition at 1 µM ([5]; @1 μM, read-out: PGE2 % change)
CN(O)CCc1ccc2c(c1)C(=O)c1ccccc1CO2 [2-(6,11-Dihydro-11-oxodibenz[b,e]oxepin-2-yl)-N-hydroxy-N-methyl-ethylamine]	-50%	240 nM	-70	-46%	100 nM			
CCN(O)CCc1ccc2c(c1)Cc1ccccc1CO2 [2-(6,11-Dihydrodibenz[b,e]oxepin-2-yl)-N-ethyl-N-hydroxyethylamine]	-84%	280 nM		-50%				
O=C1c2ccccc2COc2ccc(CCC(=O)N(O)C3CCCCC3)cc21 [3-(6,11-Dihydro-11-oxodibenz[b,e]oxepin-2-yl)-N-cyclohexyl-N-hydroxypropanamide]						76%		
CN(O)C(=O)CCc1ccc2c(c1)C(=O)c1ccccc1CO2 [3-(6,11-Dihydro-11-oxodibenz[b,e]oxepin-2-yl)-N-hydroxy-N-methylpropanamide]	-71%	50 nM	-46	-63%	780 nM			
CN(O)C(=O)CCc1ccc2c(c1)Cc1ccccc1CO2 [3-(6,11-Dihydro-dibenz[b,e]oxepin-2-yl)-N-hydroxy-N-methylpropanamide]		80 nM		-67%	1000 nM			
C[C@]12CCC(=O)C=C1CC[C@@H]1[C@@H]2[C@@H](O)C[C@@]2(C)[C@H]1CC[C@]2(O)C(=O)CO [Hydrocortisone, reference compound]							0.46 M	
CC(C)Cc1ccc(C(C)C(=O)O)cc1 (centres unmarked) [Ibuprofen, reference compound]					22 nM			
O=C1c2ccccc2COc2ccc(CC(=O)N(O)C3CCCCC3)cc21 [N-Cyclohexyl-2-(6,11-dihydro-11-oxodibenz[b,e]oxepin-2-yl)-N-hydroxyacetamide]	-52%	500 nM	-85	-29%		68%		17%
CCN(CC)CCCC(C)Nc1c2ccc(Cl)cc2nc2ccc(OC)cc12 (centres unmarked) [Quinacrine, reference compound]							0.1 M	
